Laboratory results: article PMC7046293, “Parallel quorum-sensing system in Vibrio cholerae prevents signal interference inside the host” (PLoS Pathogens, 2020)

Target: T1, CqsR-LBD (Vibrio cholerae, UniProt Q9KR16)
T1 construct: gene VC_1831; pET28B His6 tag kept; E. coli BL21(DE3)
Assay: differential scanning fluorimetry (SYPRO Orange)
Type: binding
Conditions: 10 mM ligand; 10 μM protein; PBS pH 7.5, 10% glycerol; Tm without ligand 46 °C
Excerpt: differential scanning fluorimetry (SYPRO Orange) on CqsR-LBD

SMILES | Tm (°C)^b
C[C@H](N)CO [L-alaninol, (S)-(+)-2-Amino-1-propanol] | 60 °C
NC(CO)CO [Serinol, 2-Amino-1,3-propanediol] | 53.67 [0.58]
